# According to patent US12421245B2, “Pharmaceutically acceptable acid salt of free base of GLP1 receptor agonist, and preparation method therefor” (Hangzhou Zhongmei Huadong Pharmaceutical Co., Ltd., priority 2020, dated 2025):
# Where a name gives a salt, the structure may show the parent alone.
# Experiments:
# Format in all cases: physicochemical
# [1] = Assessment of pH solubility of crystalline salts in buffers
# Description: 1) Assessment of pH Solubility The solubility of crystal form B of hydrochloride, crystal form C of p-toluenesulfonate, crystal form C of sulfate, and crystal form C of hydrobromide under different pH conditions were determined and compared, and the results were shown in Table 8. All the crystalline salts had low solubility in buffers of pH 3.0 and 5.0.
# [2] = Hygroscopicity, dynamic moisture adsorption (DVS) test; conditions: for Moisture adsorption rate: DVS, 25° C., 80% RH; for Change of crystal form, yes/no: before and after the DVS test
# Description: 5. Dynamic moisture adsorption (DVS):
# Dynamic moisture adsorption (DVS) curves were collected on DVS Intrinsic of Surface Measurement Systems (SMS). The relative humidity at 25° C. was corrected with the deliquescent points of LiCl, Mg (NO3) 2 and KCl.
# Five crystalline salts were subject to DVS test (25° C., 80% RH).
# [3] = Assessment of solid stability (XRPD and HPLC after storage); conditions: for Change of crystal form, yes/no: XRPD after 40° C./100% RH/7 d; for HPLC (area %) 40° C./100% RH/7 d: after 40° C./100% RH for 1 week; for HPLC (area %) Initiation: initial, before storage; for Stability relative to OAD2 dihydrochloride (in words): summary statement
# Description: The stability of crystal form B of hydrochloride, crystal form C of sulfate, crystal form C of p-toluenesulfonate and compound I was compared. After placement under a 40° C./100% RH condition for 1 week, physical and chemical stability was assessed by means of XRPD and HPLC, respectively, and the results were shown in Table 10.
SMILES,Solubility ([1]; pH 1.0) [µg/mL],Solubility ([1]; pH 2.0) [µg/mL],Solubility ([1]; pH 3.0) [µg/mL],Solubility ([1]; pH 5.0) [µg/mL],Solubility ([1]; pH 7.0) [µg/mL],Moisture adsorption rate [2] [%],"Change of crystal form, yes/no [2]","Change of crystal form, yes/no [3]",HPLC (area %) 40° C./100% RH/7 d [3] [area %],HPLC (area %) Initiation [3] [area %],"Solid stability (in words) ([3]; 40° C./100% RH, 1 week)",Moisture adsorption rate ([2]; dihydrochloride) [%],Stability relative to OAD2 dihydrochloride (in words) [3],Solubility compared with other crystalline salts (in words) ([1]; buffer of pH 1.0)
"CC[C@@H](c1ccccc1)N1Cc2cc3c(cc2C[C@H]1C(=O)N[C@@H](Cc1ccc(-c2ccnc(C)c2C)cc1)C(=O)O)OC[C@H](c1ccc(OCc2ccc(Cl)c(Cl)c2)cc1)O3 [Crystal form B of hydrochloride, (S)-2-(3S,8S)-3-(4-(3,4-dichlorobenzyloxy)phenyl-7-((S)-1-phenylpropyl)-2,3,6,7,8,9-hexahydro-[1,4]-dioxino[2,3-g]isoquinolin-8-ylformylamino)-3-(4-(2,3-dimethylpyridin-4-yl)phenyl)propionic acid]",381,17,2,1,109,0.8,No,No,98.18,98.37,,,superior stability relative to OAD2 dihydrochloride,
"CC[C@@H](c1ccccc1)N1Cc2cc3c(cc2C[C@H]1C(=O)N[C@@H](Cc1ccc(-c2ccnc(C)c2C)cc1)C(=O)O)OC[C@H](c1ccc(OCc2ccc(Cl)c(Cl)c2)cc1)O3 [Crystal form C of hydrobromide, (S)-2-(3S,8S)-3-(4-(3,4-dichlorobenzyloxy)phenyl-7-((S)-1-phenylpropyl)-2,3,6,7,8,9-hexahydro-[1,4]-dioxino[2,3-g]isoquinolin-8-ylformylamino)-3-(4-(2,3-dimethylpyridin-4-yl)phenyl)propionic acid]",496,16,1,4,39,1.4,No,,,,,,,
"CC[C@@H](c1ccccc1)N1Cc2cc3c(cc2C[C@H]1C(=O)N[C@@H](Cc1ccc(-c2ccnc(C)c2C)cc1)C(=O)O)OC[C@H](c1ccc(OCc2ccc(Cl)c(Cl)c2)cc1)O3 [Crystal form C of p-toluenesulfonate, (S)-2-(3S,8S)-3-(4-(3,4-dichlorobenzyloxy)phenyl-7-((S)-1-phenylpropyl)-2,3,6,7,8,9-hexahydro-[1,4]-dioxino[2,3-g]isoquinolin-8-ylformylamino)-3-(4-(2,3-dimethylpyridin-4-yl)phenyl)propionic acid]",1423,118,1,1,93,0.6,No,No,98.87,98.85,the best stability,,superior stability relative to OAD2 dihydrochloride,significantly higher solubility than other crystalline salts

# The next lines start with results.
Solubility ([1]; pH 1.0) [µg/mL],Solubility ([1]; pH 2.0) [µg/mL],Solubility ([1]; pH 3.0) [µg/mL],Solubility ([1]; pH 5.0) [µg/mL],Solubility ([1]; pH 7.0) [µg/mL],Moisture adsorption rate [2] [%],"Change of crystal form, yes/no [2]","Change of crystal form, yes/no [3]",HPLC (area %) 40° C./100% RH/7 d [3] [area %],HPLC (area %) Initiation [3] [area %],"Solid stability (in words) ([3]; 40° C./100% RH, 1 week)",Moisture adsorption rate ([2]; dihydrochloride) [%],SMILES,Stability relative to OAD2 dihydrochloride (in words) [3],Solubility compared with other crystalline salts (in words) ([1]; buffer of pH 1.0)
811,74,1,1,96,3.2,No,No,98.78,98.85,,,"CC[C@@H](c1ccccc1)N1Cc2cc3c(cc2C[C@H]1C(=O)N[C@@H](Cc1ccc(-c2ccnc(C)c2C)cc1)C(=O)O)OC[C@H](c1ccc(OCc2ccc(Cl)c(Cl)c2)cc1)O3 [Crystal form C of sulfate, (S)-2-(3S,8S)-3-(4-(3,4-dichlorobenzyloxy)phenyl-7-((S)-1-phenylpropyl)-2,3,6,7,8,9-hexahydro-[1,4]-dioxino[2,3-g]isoquinolin-8-ylformylamino)-3-(4-(2,3-dimethylpyridin-4-yl)phenyl)propionic acid]",superior stability relative to OAD2 dihydrochloride,
,,,,,,,,,,,8.3,"CC[C@@H](c1ccccc1)N1Cc2cc3c(cc2C[C@H]1C(=O)N[C@@H](Cc1ccc(-c2ccnc(C)c2C)cc1)C(=O)O)OC[C@H](c1ccc(OCc2ccc(Cl)c(Cl)c2)cc1)O3 [OAD2 dihydrochloride, (S)-2-(3S,8S)-3-(4-(3,4-dichlorobenzyloxy)phenyl-7-((S)-1-phenylpropyl)-2,3,6,7,8,9-hexahydro-[1,4]-dioxino[2,3-g]isoquinolin-8-ylformylamino)-3-(4-(2,3-dimethylpyridin-4-yl)phenyl)propionic acid dihydrochloride, reference compound]",,
